From ChEMBL document CHEMBL1201862, “PubChem BioAssay data set” (2004) come the findings set out here.

Values joined by “and” are separate entries in the source; they are usually repeats but may differ in a detail not shown here. Equal entries are not always repeated.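 96-well plates; 48 h exposure; 5 concentrations. Endpoints by linear interpolation between flanking doses. Not reached: highest tested concentration assigned. The concentration for 50% growth inhibition is given as GI50.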 Active and inactive are the calls of the source. Cut-off read from the data, not from the text of the source: active = GI50 up to about 1.1 µM and inactive = higher. Non-standard residues stand in square brackets, D forms with d. Residues, ends and D or L forms follow the SMILES beside them. ξ: configuration not given here. *: point of attachment. ξF = NC(Cc1ccccc1)C(=O)O; Cbz = O=C(OCc1ccccc1)*; Aib = CC(C)(N)C(=O)O

Among the test systems are SF-268; SF-295; SF-539; 786-0; SN12C; UACC-257; HT-29; IGROV-1; MDA-MB-231; SNB-75; MDA-MB-435; BT-549; PC-3; SK-OV-3; HCT-116; DU-145; T47D; DMS-114; KM-20L2; XF498.
Common to all, as to assay: DTP human tumour cell line panel, 48 h

As a reminder, the GI50 is the concentration giving 50% growth inhibition. With `CCN(CC)CCn1c(=O)c2c(C)c3oc4ccccc4oc3c(C)c2c1=O`, the GI50 is > 100 µM (inactive) with SF-268; > 100 µM (inactive) in the assay on SF-295; > 100 µM (inactive) in the assay on SF-539; 48.2 µM (inactive) in the assay with 786-0; > 100 µM (inactive) in the assay on SN12C; > 100 µM (inactive) in the assay with UACC-257. Also, the GI50 with HT-29, with IGROV-1, in the assay with MDA-MB-231, in the assay with SNB-75, in the assay with MDA-MB-435 and in the assay with BT-549 was > 100 µM (inactive) each time. Also, the GI50 in the assay with PC-3, in the assay on SK-OV-3 and in the assay with HCT-116 was > 100 µM (inactive) throughout.
For `O=C1c2[nH]c3ccc(Br)cc3c2CCN1Cc1ccc(Cl)cc1`, the GI50 with SF-268 is 12.7 µM (inactive); in the assay on DU-145 it was 14.2 µM (inactive); in the assay on SF-295, 12.8 µM (inactive); in the assay on SF-539, 10.7 µM (inactive); in the assay on 786-0, 11.3 µM (inactive); in the assay with SN12C, 19.3 µM (inactive). The GI50 was 15.3 µM (inactive) in the assay with UACC-257; 13.4 µM (inactive) in the assay with T47D; > 100 µM (inactive) in the assay on HT-29; 16.7 µM (inactive) in the assay on IGROV-1; 11.9 µM (inactive) with MDA-MB-231; 20.9 µM (inactive) in the assay on SNB-75. Besides, the GI50 is 14.4 µM (inactive) in the assay on MDA-MB-435, 4.74 µM (inactive) in the assay on PC-3 and 10.4 µM (inactive) in the assay with HCT-116.
On to `COc1ccc(N2NC(c3ccccc3)(c3ccccc3)C(C)C2=O)cc1` (stereo not given), for which the GI50 in the assay with SF-268 was 88.5 µM (inactive); with DU-145, > 100 µM (inactive); with SF-295 it was 36.3 µM (inactive); in the assay with SF-539, 85.1 µM (inactive); in the assay on SN12C, 82.8 µM (inactive); in the assay with UACC-257, 51.3 µM (inactive). Also, the GI50 is 39 µM (inactive) in the assay on T47D; 40 µM (inactive) with HT-29; > 100 µM (inactive) in the assay on IGROV-1; 52.1 µM (inactive) in the assay with MDA-MB-231; > 100 µM (inactive) with SNB-75; 57.3 µM (inactive) with MDA-MB-435. In addition, the results for the GI50 with BT-549, in the assay on PC-3 and in the assay with HCT-116 were > 100 µM (inactive), 30.3 µM (inactive) and 43 µM (inactive), respectively.
Take `C=CCCCC12CCCc3cccc(c31)NC2=O` (stereo not given): the GI50 with DMS-114 is 17.3 µM (inactive); with SF-295, 76.2 µM (inactive); with SF-539, 19.6 µM (inactive); in the assay with SN12C, 32.4 µM (inactive); in the assay on UACC-257, 22.1 µM (inactive); in the assay on IGROV-1, 17.1 µM (inactive). For the same compound, the GI50 in the assay on KM-20L2 is 21.2 µM (inactive); in the assay on SK-OV-3, 19.7 µM (inactive); in the assay on HCT-116 it was 13.6 µM (inactive); in the assay with XF498, 20.6 µM (inactive).
Consider `O=c1sc2ccccc2n1CC1CS1` (stereo not given), for which the GI50 with DMS-114, with SF-268, in the assay with SF-295, with SF-539, in the assay on SN12C and in the assay on HT-29 was > 100 µM (inactive) in each case. The GI50 in the assay on IGROV-1, with KM-20L2, with SK-OV-3, in the assay with HCT-116 and with XF498 was > 100 µM (inactive) in each case.
Turning to `C[n+]1cccc2c(=O)c3ccccc3oc21`, the GI50 in the assay with SF-268, in the assay with DU-145, in the assay on SF-295, with SF-539, in the assay on SN12C and with T47D was > 100 µM (inactive) throughout. Moreover, the GI50 in the assay with HT-29, in the assay with IGROV-1, with MDA-MB-231, with SNB-75, with MDA-MB-435 and in the assay on PC-3 was > 100 µM (inactive) throughout. Also, the GI50 in the assay on SK-OV-3 and with HCT-116 was > 100 µM (inactive) each time.
As for `c1cc(CNC2C3CCC(C3)C2c2c[nH]c3ccccc23)cc(CNC2C3CCC(C3)C2c2c[nH]c3ccccc23)c1` (stereo not given), the GI50 is 1.58 µM (inactive) and 1.53 µM (inactive) in the assay on SF-268; 1.57 µM (inactive) and 1.3 µM (inactive) in the assay on DU-145; 1.73 µM (inactive) and 1.46 µM (inactive) with SF-295; 1.75 µM (inactive) and 1.74 µM (inactive) with T47D; 1.35 µM (inactive) and 1.59 µM (inactive) in the assay on IGROV-1; 1.59 µM (inactive) and 1.51 µM (inactive) in the assay on MDA-MB-231. The concentration for 50% growth inhibition (GI50) in the assay with SNB-75 was 752 nM (active) and 1.3 µM (inactive); in the assay with MDA-MB-435, 658 nM (active) and 637 nM (active); in the assay on BT-549 it was 1.73 µM (inactive) and 1.75 µM (inactive); with PC-3, 1.6 µM (inactive) and 1.64 µM (inactive); in the assay with SK-OV-3 it was 1.85 µM (inactive) and 1.8 µM (inactive).
For `CN(C)C(=S)N/N=C(\C(=N/NC(=S)N(C)C)c1ccccn1)c1ccccn1`, the GI50 was 6.14 µM (inactive) with SF-268; 4.21 µM (inactive) with DU-145; 11.6 µM (inactive) in the assay with SF-295; 25.5 µM (inactive) with SF-539; 10.4 µM (inactive) in the assay with 786-0; 5.41 µM (inactive) with SN12C. The GI50 is 10.7 µM (inactive) in the assay on UACC-257; 3.21 µM (inactive) in the assay on T47D; 3.22 µM (inactive) with HT-29; 8.41 µM (inactive) with IGROV-1; 14.7 µM (inactive) in the assay with MDA-MB-231; 12.2 µM (inactive) in the assay on SNB-75. The GI50 was 10.1 µM (inactive) in the assay with MDA-MB-435; 14.6 µM (inactive) with BT-549; 4.26 µM (inactive) in the assay with PC-3; 14.4 µM (inactive) in the assay with SK-OV-3; 5.78 µM (inactive) with HCT-116.
Turning to `O=c1[nH]c(=S)[nH]c2c(C3OC(CO)C(O)C3O)nsc12` (stereo not given), the GI50 in the assay with SF-268, in the assay on DU-145, in the assay on SF-295, with SF-539, with SN12C and with UACC-257 was > 100 µM (inactive) in each case. Further, the GI50 in the assay on T47D, with HT-29, in the assay with IGROV-1, in the assay with SNB-75, in the assay with MDA-MB-435 and with BT-549 was > 100 µM (inactive) in each case. The GI50 in the assay on PC-3, in the assay on SK-OV-3 and in the assay on HCT-116 was > 100 µM (inactive) in each case.
On to `COc1ccc(N2C(=O)C(=O)N(C)C2=O)c2ccccc12`, for which the GI50 in the assay on SF-268, in the assay on DU-145, in the assay on SF-295, with SF-539, with SN12C and with T47D was > 10 µM (inactive) throughout. For the same compound, the GI50 in the assay on HT-29, with IGROV-1, in the assay with MDA-MB-231, in the assay with SNB-75, in the assay with MDA-MB-435 and in the assay with PC-3 was > 10 µM (inactive) throughout. Moreover, the GI50 with SK-OV-3 and with HCT-116 was > 10 µM (inactive) each time.
As to `COc1ccc(N2C(=O)C(=O)C3(CCCCC3)C2=O)c2ccccc12`, the GI50 in the assay on SF-268, in the assay with DU-145, in the assay on SF-295, in the assay on SF-539, with SN12C and in the assay with T47D was > 10 µM (inactive) in each case. Further, the GI50 in the assay with HT-29, with IGROV-1, in the assay on MDA-MB-231, in the assay with SNB-75, with MDA-MB-435 and with PC-3 was > 10 µM (inactive) throughout. In addition, the GI50 in the assay with SK-OV-3 and with HCT-116 was > 10 µM (inactive) in each case.
Take `CCOC(=O)CNC(=O)C(Cc1ccccc1)NC(=O)C(C)(C)NC(=O)OCc1ccccc1` (stereo not given) (Cbz-[Aib]-[ξF]-Gly-OEt): the GI50 in the assay with SF-268 is > 100 µM (inactive); in the assay on DU-145, 28.6 µM (inactive); in the assay on SF-295 it was > 100 µM (inactive); with UACC-257, 33.1 µM (inactive); with T47D it was 77.8 µM (inactive); in the assay with HT-29, > 100 µM (inactive). The GI50 is > 100 µM (inactive) with IGROV-1; > 100 µM (inactive) in the assay on MDA-MB-231; 67.3 µM (inactive) in the assay with MDA-MB-435; > 100 µM (inactive) with PC-3; > 100 µM (inactive) in the assay with HCT-116.
Regarding `CN(C)CCNc1ccc(NCC[N+](C)(C)Cc2ccc([N+](=O)[O-])cc2)c2c1C(=O)c1ccccc1C2=O`, the GI50 is 11.9 µM (inactive) in the assay with SF-268; 14.1 µM (inactive) in the assay with DU-145; 18.6 µM (inactive) in the assay with SF-295; 16.2 µM (inactive) in the assay on 786-0; 5.56 µM (inactive) in the assay with SN12C; 8.41 µM (inactive) in the assay on UACC-257. Further, the GI50 with T47D was > 25 µM (inactive); in the assay with HT-29, 16.6 µM (inactive); in the assay with IGROV-1, 14.5 µM (inactive); with MDA-MB-231 it was 4.86 µM (inactive); in the assay on SNB-75, > 25 µM (inactive); with MDA-MB-435, > 25 µM (inactive). In addition, the GI50 in the assay with BT-549 was > 25 µM (inactive); in the assay on PC-3, 13.6 µM (inactive); in the assay on SK-OV-3 it was > 25 µM (inactive); with HCT-116 it was 10.9 µM (inactive).
As for `CC1(C)Cc2nnsc2C2=C1C(=O)CCS2`, the GI50 in the assay with DMS-114, in the assay with SF-268, in the assay with SF-295, in the assay on SF-539, in the assay on 786-0 and in the assay on SN12C was > 100 µM (inactive) each time. Moreover, the GI50 in the assay on UACC-257 was > 100 µM (inactive); in the assay with HT-29 it was > 100 µM (inactive); in the assay on IGROV-1 it was > 100 µM (inactive); with KM-20L2, > 100 µM (inactive); with SNB-75, 24 µM (inactive); in the assay with SK-OV-3, > 100 µM (inactive).
